Test results as given in US20100068150A1, “Selective Caspase Inhibitors” (The Board of Trustees of the Leland Stanford Junior …, priority 2006, published 2010).

What was measured:
Format in all cases: biochemical
Caspase-7 = molecular target: T1, Caspase-7 (Homo sapiens, UniProt P55210); experiment: Kinetic compound screening, progress curve method, caspase-7; conditions: for Ki(app) Caspase-7: Table III, Ki(app) = Kass or Kobs/I, 5 nM active caspase-7; for Caspase-7 Ki (app): Table IV
T1 sequence (P55210 1-303): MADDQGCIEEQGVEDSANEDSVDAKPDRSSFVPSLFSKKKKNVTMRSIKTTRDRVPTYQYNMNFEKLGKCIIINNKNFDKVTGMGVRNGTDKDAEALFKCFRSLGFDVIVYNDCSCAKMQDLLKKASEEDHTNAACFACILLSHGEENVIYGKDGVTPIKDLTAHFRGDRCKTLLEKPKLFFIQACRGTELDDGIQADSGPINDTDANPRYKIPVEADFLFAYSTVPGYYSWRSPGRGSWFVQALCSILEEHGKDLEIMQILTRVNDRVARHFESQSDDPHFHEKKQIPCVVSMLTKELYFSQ
Text: (§1) Table III below presents Ki(app) values for select AB compounds. Ki(app) values (also called Kass or Kobs/I) represent the speed of inhibitor binding to a target enzyme. Units are [M^−1s^−1]. NI indicates no inhibition at concentrations tested. Parent compounds AB09, ABo8, and AB07 that include the optimal substrate specificity sequences for caspases-3, […] as determined by Thornberry and colleagues (Thornberry et al., 19970 are included between double lines.
(§2) The inhibitors AB07 (NP-LEHD-AOMK, caspase-9), AB08 (NP-LETD-AOMK, caspase-8), and AB09 (NP-DEVD-AOMK, caspase-3) were synthesized and kinetic inhibition constants (Kiapp) were obtained for all compounds for caspases 3, 7, 8 and 9 using the progress curve method for pseudo-first order reactions kinetics (Salvesen, 1989) (structures shown in Table I). […] Ki(app) values (also called Kass or Kobs/I) represent the speed of inhibitor binding to a target enzyme. Units are [M-1s-1]. NI indicates no inhibition at concentrations tested, ND indicates data not determined, SD indicates standard deviation.
(§3) Compound screening was completed using the progress curve method as described (Salvesen, 1989). All screening was carried out in caspase reaction buffer. The caspase-9 specific compounds AB38, 40, 41 and 42 were screened in caspase reaction buffer and in caspase buffer with 1M sodium citrate instead of sucrose as described (Pop, 2006) The concentrations of active caspases used is as follows: 5 nM active caspase-3, 5 nM active caspase-7, 10 nM active caspase-8, and 50 nM active caspase-9. To ensure full activation, caspases 3/7, 8 and 9 were preincubated at 37° C. for 5, 10, or 40 minutes respectively before kinetic measurements were made.

Caspase-8 = Caspase-8 (Homo sapiens, UniProt Q14790); experiment: Kinetic compound screening, progress curve method, caspase-8; conditions: for Ki(app) Caspase-8: Table III, Ki(app) = Kass or Kobs/I, 10 nM active caspase-8; for Caspase-8 Ki (app): Table IV, NI = no inhibition at concentrations tested
Text: as §1, §2, §3

Caspase-3 = molecular target: T2, Caspase-3 (Homo sapiens, UniProt P42574); experiment: Kinetic compound screening, progress curve method, caspase-3; conditions: for Ki(app) Caspase-3: Table III, Ki(app) = Kass or Kobs/I, 5 nM active caspase-3; for Caspase-3 Ki(app): Table IV
T2 sequence (P42574 29-175 limits assumed): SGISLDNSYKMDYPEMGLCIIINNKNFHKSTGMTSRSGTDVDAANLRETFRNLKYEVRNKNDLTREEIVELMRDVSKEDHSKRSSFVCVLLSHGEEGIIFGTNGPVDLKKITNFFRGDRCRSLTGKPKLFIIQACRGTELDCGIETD
T2 sequence (P42574 176-277 limits assumed): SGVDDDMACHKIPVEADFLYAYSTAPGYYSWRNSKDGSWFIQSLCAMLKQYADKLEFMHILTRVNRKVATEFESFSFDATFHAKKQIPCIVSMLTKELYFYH
Text: as §1, §2, §3

Caspase-9 = molecular target: T3, Caspase-9 (Homo sapiens, UniProt P55211); experiment: Kinetic compound screening, progress curve method, caspase-9; conditions: for Ki(app) Caspase-9: Table III, Ki(app) = Kass or Kobs/I, 50 nM active caspase-9; for Ki(app) Caspase-9 / Caspase-9 Ki (app): NI = no inhibition at concentrations tested; for Caspase-9 Ki (app): Table IV
T3 sequence (P55211 1-416): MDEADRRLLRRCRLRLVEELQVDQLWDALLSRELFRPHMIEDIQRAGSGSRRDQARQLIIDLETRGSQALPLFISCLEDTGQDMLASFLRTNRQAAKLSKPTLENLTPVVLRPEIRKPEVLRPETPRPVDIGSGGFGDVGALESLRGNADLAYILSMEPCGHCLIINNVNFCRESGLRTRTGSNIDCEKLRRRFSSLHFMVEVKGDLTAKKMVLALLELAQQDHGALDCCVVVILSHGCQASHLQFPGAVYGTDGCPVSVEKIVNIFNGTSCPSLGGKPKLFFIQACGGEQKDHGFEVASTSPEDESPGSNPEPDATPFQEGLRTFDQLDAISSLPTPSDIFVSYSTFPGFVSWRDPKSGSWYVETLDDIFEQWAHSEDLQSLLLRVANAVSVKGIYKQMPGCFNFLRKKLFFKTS
Text: as §1, §2, §3

Caspase-8, sequence (Q14790 217-479): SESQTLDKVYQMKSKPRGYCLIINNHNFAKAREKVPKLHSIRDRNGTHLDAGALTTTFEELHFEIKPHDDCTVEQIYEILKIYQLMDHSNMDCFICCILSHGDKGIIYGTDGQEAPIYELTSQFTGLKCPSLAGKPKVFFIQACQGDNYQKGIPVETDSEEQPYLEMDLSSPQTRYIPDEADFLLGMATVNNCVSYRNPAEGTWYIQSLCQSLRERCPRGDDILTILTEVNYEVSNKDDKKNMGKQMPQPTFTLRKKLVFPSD

Compound | Ki(app) Caspase-7 (Caspase-7) | Caspase-7 Ki (app) (Caspase-7) | Ki(app) Caspase-8 (Caspase-8) | Caspase-8 Ki (app) (Caspase-8) | Ki(app) Caspase-3 (Caspase-3) | Caspase-3 Ki(app) (Caspase-3) | Ki(app) Caspase-9 (Caspase-9) | Caspase-9 Ki (app) (Caspase-9) | inhibition of caspase-8, in words (Caspase-8) | activity for caspase-9, in words (Caspase-9)
Cc1cccc(C)c1C(=O)OCC(=O)[C@H](CC(=O)O)NC(=O)C1CCCN1C(=O)[C@@H](CCC(=O)O)NC(=O)[C@H](CC(=O)O)NC(=O)Cc1ccc(O)c([N+](=O)[O-])c1 (stereo partly drawn) [AB11, NP-D-E- P-D-DMBA] | 199,341 M^−1s^−1 | 199,341 M-1s-1 | 580,547 M^−1s^−1 | 580,547 M-1s-1 | 2,482,333 M^−1s^−1 | 2,482,333 M-1s-1 | 47,362 M^−1s^−1 | 47,362 M-1s-1 | – | –
Cc1ccc(C[C@H](NC(=O)[C@H](CC(=O)O)NC(=O)Cc2ccc(O)c([N+](=O)[O-])c2)C(=O)N[C@H](C(=O)N[C@@H](CC(=O)O)C(=O)COC(=O)c2c(C)cccc2C)C(C)C)cc1 [AB12, Np-D-E-29-V-D-DMBA] | 783,840 M^−1s^−1 | 783,840 M-1s-1 | 271,626 M^−1s^−1 | 271,626 M-1s-1 | 5,652,900 M^−1s^−1 | 5,652,900 M-1s-1 | – | – | – | –
Cc1ccc(C[C@H](NC(=O)[C@H](CC(=O)O)NC(=O)Cc2ccc(O)c([N+](=O)[O-])c2)C(=O)NC2(C(=O)N[C@@H](CC(=O)O)C(=O)COC(=O)c3c(C)cccc3C)CC2)cc1 [AB30, Np-D-30-11-D-DMBA] | – | – | – | – | – | 448,179 M-1s-1 | – | – | – | –
Cc1cccc(C)c1C(=O)OCC(=O)[C@H](CC(=O)O)NC(=O)[C@@H](NC(=O)C(CCC(=O)O)NC(=O)[C@H](Cc1ccc2ccccc2c1)NC(=O)Cc1ccc(O)c([N+](=O)[O-])c1)C(C)C (stereo partly drawn) [AB17, Np-26-E-V-D-DMBA] | 448,155 M^−1s^−1 | 448,155 M-1s-1 | 126,323 M^−1s^−1 | 126,323 M-1s-1 | 781,733 M^−1s^−1 | 781,733 M-1s-1 | – | – | – | –
Cc1ccc(C[C@H](NC(=O)Cc2ccc(O)c([N+](=O)[O-])c2)C(=O)N[C@@H](CCC(=O)O)C(=O)N[C@H](C(=O)N[C@@H](CC(=O)O)C(=O)COC(=O)c2c(C)cccc2C)C(C)O)cc1 (stereo partly drawn) [AB20, Np-29-E-T-D-DMBA] | 181,332 M^−1s^−1 | 181,332 M-1s-1 | 1,071,401 M^−1s^−1 | 1,071,401 M-1s-1 | 570,900 M^−1s^−1 | 570,900 M-1s-1 | 41,300 M^−1s^−1 | 41,300 M-1s-1 | highest kinetic inhibition constants for caspase-8 that we have measured so far | –
Cc1cccc(C)c1C(=O)OCC(=O)[C@H](CC(=O)O)NC(=O)[C@@H](NC(=O)[C@@H](NC(=O)[C@H](Cc1ccc2ccccc2c1)NC(=O)Cc1ccc(O)c([N+](=O)[O-])c1)c1ccccc1)C(C)C [AB15, Np-26-34-V-D-DMBA] | – | – | – | – | – | 133,705 M-1s-1 | – | – | – | –
Cc1cccc(C)c1C(=O)OCC(=O)[C@H](CC(=O)O)NC(=O)[C@@H](NC(=O)[C@@H](NC(=O)[C@H](CC(=O)O)NC(=O)Cc1ccc(O)c([N+](=O)[O-])c1)c1ccccc1)C(C)C [AB13, Np-D-E-34-V-D-DMBA] | 279,519 M^−1s^−1 | 279,519 M-1s-1 | <5,000 M^−1s^−1 | <5,000 M-1s-1 | 3,416,050 M^−1s^−1 | 3,416,050 M-1s-1 | – | – | – | –
Cc1cccc(C)c1C(=O)OCC(=O)[C@H](CC(=O)O)NC(=O)C1(NC(=O)[C@H](CCC(=O)O)NC(=O)[C@H](CC(=O)O)NC(=O)Cc2ccc(O)c([N+](=O)[O-])c2)CC1 [AB29, Np-D-E-11-D-DMBA] | – | – | – | 90,503 M-1s-1 | – | 341,429 M-1s-1 | – | – | – | –
Cc1cccc(C)c1C(=O)OCC(=O)[C@H](CC(=O)O)NC(=O)[C@@H](NC(=O)[C@H](CCC(=O)O)NC(=O)[C@H](Cc1ccc(I)cc1)NC(=O)Cc1ccc(O)c([N+](=O)[O-])c1)C(C)O (stereo partly drawn) [AB18, NP-31-E-T-D-DMBA] | 234,945 M^−1s^−1 | 234,945 M-1s-1 | 572,012 M^−1s^−1 | 572,012 M-1s-1 | 216,040 M^−1s^−1 | 216,040 M-1s-1 | 12,320 M^−1s^−1 | 12,320 M-1s-1 | – | –
Cc1cccc(C)c1C(=O)OCC(=O)[C@H](CC(=O)O)NC(=O)[C@@H](NC(=O)[C@H](CCC(=O)O)NC(=O)[C@H](Cc1ccc(I)cc1)NC(=O)Cc1ccc(O)c([N+](=O)[O-])c1)C1Cc2ccccc2C1 [AB19, NP-31-E-23-D-DMBA] | 42,994 M^−1s^−1 | 42,994 M-1s-1 | 396,225 M^−1s^−1 | 396,225 M-1s-1 | 179,086 M^−1s^−1 | 179,086 M-1s-1 | – | – | retained relatively good potency for caspase-8 | no measurable activity for caspase-9
Cc1cccc(C)c1C(=O)OCC(=O)[C@H](CC(=O)O)NC(=O)[C@@H](NC(=O)[C@H](CCC(=O)O)NC(=O)[C@H](CC(C)C)NC(=O)Cc1ccc(O)c([N+](=O)[O-])c1)C(C)O (stereo partly drawn) [AB08, Np-L-E- T-D-DMBA] | 19,424 M^−1s^−1 | 19,424 M-1s-1 | 599,788 M^−1s^−1 | 599,788 M-1s-1 | 127,835 M^−1s^−1 | 127,835 M-1s-1 | <5,000 M^−1s^−1 | <5,000 M-1s-1 | – | –
Cc1cccc(C)c1C(=O)OCC(=O)[C@H](CC(=O)O)NC(=O)[C@@H](NC(=O)[C@H](Cc1ccccn1)NC(=O)[C@H](Cc1ccc2ccccc2c1)NC(=O)Cc1ccc(O)c([N+](=O)[O-])c1)C(C)C [AB16, Np-26-3-V-D-DMBA] | 24,185 M^−1s^−1 | 24,185 M-1s-1 | 121,650 M^−1s^−1 | 121,650 M-1s-1 | 484,495 M^−1s^−1 | 484,495 M-1s-1 | – | – | – | –
Cc1ccc(C[C@@H](NC(=O)[C@H](CC(=O)O)NC(=O)Cc2ccc(O)c([N+](=O)[O-])c2)C(=O)N[C@H](C(=O)N[C@@H](CC(=O)O)C(=O)COC(=O)c2c(C)cccc2C)C(C)C)cc1 [AB31, Np-D-30-V-D-DMBA] | – | – | – | – | – | 64,873 M-1s-1 | – | – | – | –
